Laboratory results: PubChem BioAssay (NCI)
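1) Cells in 96-well plates. 2) Compound, 48 h, 5 concentrations. 3) Linear interpolation between surrounding doses. 4) Unreached endpoint = highest concentration. At the GI50, growth is halved. TGI: total growth inhibition.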 Where a SMILES comes first, the peptide text is derived from it. [ ]: non-standard residue; d: D form. The star is where a group is joined. Bn2Val = CC(C)[C@@H](C(=O)*)N(Cc1ccccc1)Cc1ccccc1; NH(4-Cl-benzyl) = Clc1ccc(CN*)cc1; NMeV = CN[C@H](C(=O)O)C(C)C; dNMeA = CN[C@H](C)C(=O)O

Assays:
Assay in all cases: growth of human tumour cells (NCI), 48 h
EKVX NSCLC = tested on: EKVX NSCLC
BT-549 breast = tested on: BT-549 breast
CCRF-CEM leukemia = tested on: CCRF-CEM leukemia
HOP-62 NSCLC = tested on: HOP-62 NSCLC
HCT-116 colon = tested on: HCT-116 colon
SF-539 CNS = tested on: SF-539 CNS
UACC-257 melanoma = tested on: UACC-257 melanoma
IGROV1 ovarian = tested on: IGROV1 ovarian
M14 melanoma = tested on: M14 melanoma

Compound	TGI (EKVX NSCLC) [µM]	TGI (BT-549 breast) [µM]	TGI (CCRF-CEM leukemia) [µM]	TGI (HOP-62 NSCLC) [µM]	TGI (HCT-116 colon) [µM]	TGI (SF-539 CNS) [µM]	TGI (UACC-257 melanoma) [µM]	TGI (IGROV1 ovarian) [µM]	TGI (M14 melanoma) [µM]	GI50 (CCRF-CEM leukemia) [µM]	GI50 (EKVX NSCLC) [µM]	GI50 (BT-549 breast) [µM]	GI50 (HOP-62 NSCLC) [µM]	GI50 (UACC-257 melanoma) [µM]	GI50 (M14 melanoma) [µM]	GI50 (HCT-116 colon) [µM]	GI50 (SF-539 CNS) [µM]	GI50 (IGROV1 ovarian) [µM]
c1ccc(/C(=N/Nc2ccncn2)c2ccccn2)cc1	50.3	> 100	> 100	> 100	> 100	> 100	> 100	53.6	30.5	–	–	–	–	–	–	–	–	–
COc1ccc(Nc2ccc3ccccc3c2-c2c(O)ccc3ccccc23)cc1	31.8	52	46.8	25.1	40.5	51.1	58.9	23	–	–	–	–	–	–	–	–	–	–
C=CCOn1c(C=C)nc2ccc(C)cc21	37.8	41.2	7.21	78.3	24.4	–	32.3	> 100	32.6	–	–	–	–	–	–	–	–	–
Cc1c(C(=O)OCc2ccccc2)[n+](=O)c2cc(Cl)c(Cl)cc2n1[O-]	28.6	44.4	39.4	30.5	27.2	55.9	29.6	19	28.3	–	–	–	–	–	–	–	–	–
CCCCCCCCCCCCCCCCCCNc1nc(=O)n(C2CC(O)C(COP(=O)(O)O)O2)cc1F (stereo unspecified)	> 100	> 100	81.2	> 100	> 100	> 100	> 100	> 100	> 100	–	–	–	–	–	–	–	–	–
Cc1cc2c([nH]c3ccccc32)c(O)c1-c1c(C)cc2c([nH]c3ccccc32)c1O	27.7	33.6	–	31.5	27.2	31.7	30.9	25.2	29.8	–	–	–	–	–	–	–	–	–
NNC(=O)C1(NC(=O)c2ccccc2)C(c2ccccc2)C(c2ccccc2)=NN1c1ccccc1 (stereo unspecified)	> 100	> 100	98.4	> 100	> 100	> 100	> 100	> 100	54.9	–	–	–	–	–	–	–	–	–
C=C(C)[C@H]1C2=CC(C)=C(O2)[C@@H](O[C@@H]2c3oc(cc3C)[C@H](C(=C)C)[C@H]3C=C(CC[C@H]2C(=C)C)C(=O)O3)[C@H](C(=C)C)CCC2=C[C@H]1OC2=O	> 100	> 100	> 100	> 100	> 100	–	> 100	> 100	> 100	–	–	–	–	–	–	–	–	–
CCOP(=O)(OCC)/C(=C/c1cccs1)CC(C)=O	> 100	> 100	> 100	> 100	> 100	> 100	> 100	> 100	> 100	–	–	–	–	–	–	–	–	–
C#CCn1c(=O)c(C)cn(/C(=C\C(=O)OCC)C(=O)OCC)c1=O	30.1	22.8	8	39.2	10.3	4.25	28.2	15.3	11.3	0.7	–	–	–	–	–	–	–	–
COc1ccc(C(SC2C(O)C(CO)OC2n2ccc(=O)[nH]c2=O)(c2ccccc2)c2ccc(OC)cc2)cc1 (stereo unspecified)	41.8	33.6	> 100	40.8	29.2	39.2	33.5	40.9	25.8	–	–	–	–	–	–	–	–	–
O=C1NC(=O)C(C(CC(=O)c2ccc(Cl)cc2)c2ccc(Cl)cc2)C(=O)N1 (stereo unspecified)	> 100	> 100	> 100	> 100	> 100	> 100	> 100	> 100	> 100	–	–	–	–	–	–	–	–	–
Nc1ccc(S(=O)(=O)Nc2nc3ccccc3nc2N2CCCCCC2)cc1	> 100	28.2	> 100	52.6	33.2	35.7	> 100	> 100	> 100	–	–	–	–	–	–	–	–	–
CN1CC2=C(NC(=S)NC2c2ccccc2)/C(=C/c2ccccc2)C1 (stereo unspecified)	> 100	> 100	> 100	> 100	63.3	> 100	> 100	> 100	56.6	–	–	–	–	–	–	–	–	–
Cc1cc(C)c2c(c1)C(=O)/C(=C/c1ccccc1C(=O)O)C2	> 100	> 100	> 100	> 100	> 100	89.3	> 100	> 100	> 100	–	–	–	–	–	–	–	–	–
COc1ccc(C(=O)CC(c2ccccc2)[C@H]2C(c3ccc(OC)cc3)=Nc3c(nc(SC)n(C)c3=O)NC2c2ccccc2)cc1 (stereo partly specified)	> 100	> 100	> 100	> 100	> 100	> 100	> 100	> 100	> 100	–	–	–	–	–	–	–	–	–
Cc1nc(N)c(N2CCN(CN)CC2)c(=O)[nH]1	> 100	> 100	> 100	> 100	> 100	> 100	> 100	–	> 100	–	–	–	–	–	–	–	–	–
CN(C)/N=N/c1nc2c(c(=O)n(C)c(=O)n2C)n1CC(O)CO (stereo unspecified)	> 100	> 100	> 100	> 100	> 100	–	> 100	> 100	> 100	–	–	–	–	–	–	–	–	–
CN1C(=O)C(O)C[C@@H]1c1ccccc1 (stereo partly specified)	> 100	> 100	> 100	> 100	> 100	> 100	> 100	> 100	> 100	–	–	–	–	–	–	–	–	–
CCN=C1C=CC(=C(c2ccc(N(CC)CC)cc2)c2ccc(N(CC)CC)cc2)c2ccccc21	1.18	0.602	1.52	0.846	–	–	1.18	–	1.22	0.0471	0.0378	0.107	0.159	0.077	0.184	–	–	–
C=CCC1C(O[Si](C)(C)C(C)(C)C)C(CO[Si](C)(C)C(C)(C)C)OC1n1ccc(=O)[nH]c1=O (stereo unspecified)	2.79	3.42	2.86	–	2.5	3.03	3.37	3.02	2.96	–	–	–	–	–	–	–	–	–
CC(C)(C)OC(=O)NCC(CNC(=O)OC(C)(C)C)c1nc(C(N)=O)cs1	> 100	> 100	> 100	> 100	> 100	> 100	> 100	> 100	> 100	–	–	–	–	–	–	–	–	–

Compound	TGI (EKVX NSCLC) [µM]	TGI (BT-549 breast) [µM]	TGI (CCRF-CEM leukemia) [µM]	TGI (HOP-62 NSCLC) [µM]	TGI (HCT-116 colon) [µM]	TGI (SF-539 CNS) [µM]	TGI (UACC-257 melanoma) [µM]	TGI (IGROV1 ovarian) [µM]	TGI (M14 melanoma) [µM]	GI50 (CCRF-CEM leukemia) [µM]	GI50 (EKVX NSCLC) [µM]	GI50 (BT-549 breast) [µM]	GI50 (HOP-62 NSCLC) [µM]	GI50 (UACC-257 melanoma) [µM]	GI50 (M14 melanoma) [µM]	GI50 (HCT-116 colon) [µM]	GI50 (SF-539 CNS) [µM]	GI50 (IGROV1 ovarian) [µM]
COc1cc(C2C3=C(COC3=O)Oc3cc4c(cc32)OCO4)cc(OC)c1O (stereo unspecified)	94.1	> 100	> 66.9	15.2	0.208	< 0.0148	> 61.7	21.9	> 100	–	–	–	–	–	–	–	–	–
CC(=O)Nc1ccc(OC/C(N)=N/NC(=O)c2ccncc2)cc1	> 100	> 100	> 100	> 100	> 100	> 100	> 100	> 100	> 100	–	–	–	–	–	–	–	–	–
O=C1CC(=O)n2cnc3cccc(c32)N1	> 100	> 100	> 100	> 100	> 100	> 100	> 100	> 100	> 100	–	–	–	–	–	–	–	–	–
CCCSc1ccc2[nH]c(N3C(=O)/C(=C/c4ccccc4)N=C3c3ccccc3)cc2c1	> 50	> 50	> 50	–	> 50	> 50	> 50	> 50	> 50	–	–	–	–	–	–	–	–	–
Cn1c(=O)oc2nc(-c3ccccc3)cc(C(F)(F)F)c21	> 100	> 100	–	> 100	> 100	> 100	> 100	> 100	> 100	–	–	–	–	–	–	–	–	–
CC(C)[C@H](NC(=O)[C@H](C(C)C)N(Cc1ccccc1)Cc1ccccc1)C(=O)N(C)[C@H](C(=O)N1CCC[C@H]1C(=O)N(C)[C@H](C)C(=O)NCc1ccc(Cl)cc1)C(C)C (Bn2Val-V[NMeV]P[dNMeA]-{NH(4-Cl-benzyl)})	34	13.5	7.43	29.5	11.7	62.3	> 100	8.3	30.1	–	–	–	–	–	–	–	–	–
CC(C)C(C/C=C1\CC(CO)(COC(=O)C2CCCCC2)OC1=O)C(C)C (stereo unspecified)	41.2	47.2	43	27.5	36.5	36.3	84.1	39.5	48.4	–	–	–	–	–	–	–	–	–
O=C(Cc1ccc(Cl)c(Cl)c1)NCC1(N2CCCCC2)CCCCC1	> 100	> 100	> 100	> 100	> 100	–	36.7	> 100	34.4	–	–	–	–	–	–	–	–	–
CCOP(=O)(O)CN1CCNCCN(CP(=O)(O)OCC)CCNCC1	> 100	> 100	> 100	> 100	> 100	> 100	> 100	> 100	–	–	–	–	–	–	–	–	–	–
CC(Oc1ccccc1Cl)C(=O)NN1C(=O)CSC1c1ccccc1 (stereo unspecified)	> 100	> 100	> 100	> 100	> 100	> 100	> 100	> 100	> 100	–	–	–	–	–	–	–	–	–
C=C(C)CC1(O[Si](C)(C)C)C(=O)C(OCC)=C1OCC (stereo unspecified)	> 100	> 100	> 100	> 100	> 100	> 100	> 100	> 100	> 100	–	–	–	–	–	–	–	–	–
Cc1cc(OC(=O)NCn2cc(-c3ccccc3)nn2)ccc1Cl	> 100	> 100	> 100	> 100	> 100	> 100	> 100	> 100	> 100	–	–	–	–	–	–	–	–	–
COc1cnc2c(c1)C(=O)c1c-2n(CCCNCCO)c(=O)c2ccncc12	9.27	12.7	12.5	26.6	16.9	6.95	9.02	> 100	7.16	0.626	2.29	2.03	1.32	2.18	1.93	0.489	1.4	2.65
CC1(C)CC(=O)C2(CC(CSc3ccccc3)C(CS(=O)(=O)c3ccccc3)C2)C(=O)C1 (stereo unspecified)	> 100	> 100	> 100	> 100	> 100	> 100	> 100	> 100	> 100	–	–	–	–	–	–	–	–	–
CN(C)CCn1c(CO)nc2c1c(=O)n(C)c(=O)n2C	> 100	> 100	> 100	> 100	> 100	> 100	> 100	> 100	> 100	–	–	–	–	–	–	–	–	–
O=C(Nn1c(-c2ccccc2)nc2ccccc2c1=O)c1ccccc1O	> 100	> 100	> 100	> 100	> 100	> 100	> 100	> 100	> 100	–	–	–	–	–	–	–	–	–
CC(C)(C)n1c(=O)[nH]c(=O)n1C(C)(C)C	> 100	> 100	> 100	> 100	> 100	> 100	> 100	> 100	> 100	–	–	–	–	–	–	–	–	–
COc1cc(C2C(Cl)C(=O)N2c2c(C)n(C)n(-c3ccccc3)c2=O)ccc1O (stereo unspecified)	70.2	45	79.7	73.2	19.3	39.4	40.7	29.1	30.7	–	–	–	–	–	–	–	–	–
O=C(Nc1ccccc1C(=O)NCc1ccccc1)/C(=C/c1ccccc1)NC(=O)c1ccccc1	> 100	> 100	> 100	> 100	> 100	> 100	> 100	> 100	> 100	–	–	–	–	–	–	–	–	–
O=C1OC[C@H]2[C@@H]1[C@H]1O[C@@H]2C2=C(CCC2)C1=O	> 100	> 100	> 100	> 100	> 100	> 100	> 100	> 100	> 100	–	–	–	–	–	–	–	–	–
O=C(N/N=C/C=C/c1ccccc1)c1ccccc1Nc1ccccc1C(=O)N/N=C/C=C/c1ccccc1	> 100	> 100	> 100	70.4	> 100	–	> 100	> 100	> 100	–	–	–	–	–	–	–	–	–
C/C(=N\NC(=S)N(C)C)c1cccnn1	10.4	> 100	–	> 100	> 25.9	1.65	2.98	> 40.3	> 100	–	–	–	–	–	–	–	–	–
